# Data taken from patent EP0039809A2, “2-Amino-5-halogen-benzothiazoles, process for preparing them and medicines containing them” (Dr. Karl Thomae GmbH, priority 1980, dated 1981).
# Where two headings read alike, the source gives them in different places.
# Experiments:
# [1] = system: Körpertemperatur der Ratte; experiment: Effect on body temperature of the rat (rectal temperature lowering); assay type: in vivo; conditions: oral (gavage), Chbb:THOM rats, dose lowering body temperature by 1,5°C, read-out: Körpertemperatursenkg. Ratte [ED-1,5°C]
# Procedure: 3. Wirkung auf die Körpertemperatur der Ratte
# Die Prüfung der temperatursenkenden Wirkung erfolgte durch; die Kontrolle des Verlaufes der rektal gemessenen Körper- temperatur von Chbb:THOM-Ratten mit einem Gewicht zwischen 125-150 g über im Rektum verweilende Thermoelemente. Die Prüfsubstanz wurde als Verreibung in 1 %iger Methylzellulose (1,0 ml/100 g Tier) per Schlundsonde beigebracht. Aus den nach Gabe der verschiedenen Dosen der Prüfsubstanz gewonnenen Werten für die mittlere maximale Temperatursenkung wurde nach linearer Regressionsanalyse nach LINDER (s.o.) eine ED-1,5°C als jene Dosis berechnet, die eine Senkung der Körpertemperatur um 1,5°C bewirkte.
# [2] = Acute toxicity in the mouse; conditions: in vivo, oral (gavage), Chbb:NMRI(SPF) mice of both sexes, deaths within 14 days, read-out: Akute Toxizität Maus [LD50]
# Procedure: 4. Akute Toxizität an der Maus
# Die Bestimmung der akuten Toxizität erfolgte an Chbb:NMRI (SPF)-Mäusen beider Geschlechter mit einem mittleren Gewicht von 20 g. Die Prüfsubstanz wurde als Verreibung in 1 %iger Methylzellulose (0,5 ml/10 g Tier) per Schlundsonde verabfolgt. Die Berechnung der LD50 erfolgte (soweit möglich) nach LITCHFIELD u. WILCOXON (J. Pharmacol. exp. Therap. 96, 99 (1949)) aus dem Prozentsatz der Tiere, die nach den verschiedenen Dosen innerhalb von 14 Tagen verstarben.
# [3] = system: Entzündungsschmerz der Ratte; experiment: Analgesic effect against inflammatory pain in the rat (RANDALL-SELITTO, yeast-inflamed paw, pain threshold); assay type: in vivo; conditions: oral (gavage), male Chbb:THOM rats, dose raising the pain threshold by 50 % versus controls
# Procedure: 1) Wirkung gegen den Entzündungsschmerz der Ratte
# Die Versuchsanordnung entsprach der von RANDALL-SELITTO (Arch. int. Pharmacodyn. 111, 409 (1957) angegebenen.
# Männliche Chbb:THOM-Ratten mit einem Gewicht zwischen 100 und 130 g erhielten eine subplantare Injektion von 0,1 ml einer 5%igen Suspension von Hefezellen in 5,55 %iger Glukoselösun^g in eine Hinterpfote. […] 2 1/4 Stunden nach der Injektion des Phlogisticums erhielten die Tiere verschiedene Dosen der Prüfsubstanz als Verreibung in 1 %iger Methylzellulose (1 ml/100 g Tier) per Schlundsonde beigebracht. Kontrolltiere erhielten entsprechende Volumina des Vehikels. ― 90 bzw. 45 min nach Applikation der Prüfsubstanz (d.h. 3 Stunden nach der subplantaren Injektion der Hefesuspension) wurde bei den Ratten die Schmerzschwelle in g Auflagedruck/Pfote bestimmt.
# Aus der nach den verschiedenen Dosen der Prüfsubstanz ge- i messenen Schmerzschwelle wurde nach linearer Regressionsanalyse nach LINDER (Statistische Methoden, 4. Aufl. pp. 148-162, Birkhäuser, Basel 1964) eine ED50 mit den Vertrauensgrenzen nach FIELLER (Quart. J. Pharm. Pharmacol. 17, 117 (1944) als jene Dosis ermittelt, die eine Anhebung der Schmerzschwelle um 50 % gegenüber der der Kontrollen bewirkte.
# Wärmeschmerz der Maus = experiment: Analgesic effect against heat pain in the mouse (hot plate, modified CHEN and BECKMAN); assay type: in vivo; conditions: oral (gavage), male Chbb:NMRI(SPF) mice, plate 52°C, dose giving 100 % prolongation of reaction time, read-out: Analgesie Maus "hot plate" [ED100]
# Procedure: 2) Wirkung gegen den Wärmeschmerz der Maus
# Die Prüfung erfolgte mit Hilfe einer Modifikation der Ver- suchsanordnung nach CHEN u. BECKMAN (Science 113, 631 (1951) an männlichen Chbb:NMRI(SPF)-Mäusen mit einem mittleren Gewicht von 20 g. Die "heiße Platte" bestand aus Aluminium und hatte eine Oberflächentemperatur von 52°C. ;
# Die Prüfsubstanz wurde als Verreibung in 1 %iger-Methylzellulose (0,1 ml/10 g maus) per Schlundsonde beigebracht. Vor der Behandlung mit Prüfsubstanz wurden die Tiere im Abstand von 30 min. zweimal auf die heiße Platte gesetzt. Es wurde ihre individuelle Reaktionszeit ermittelt. Nach Gabe der Prüfsubstanz wurde in Abständen von 30 min. die Reaktionszeit erneut gemessen.
# Aus der mit den verschiedenen Dosen der Prüfsubstanz erzielten gemittelten maximalen Verlängerung der Reaktionszeit wurde nach linearer Regressionsanalyse nach LINDER (s.o.) eine ED100 mit den Vertrauensgrenzen nach FIELLER (s.o.) als die Dosis berechnet, die zu einer 100 %igen Verlängerung der Reaktionszeit führte.
smiles,measurement,setting,value
COc1cc2sc(N)nc2cc1Cl [2-Amino-5-chlor-6-methoxy-benzothiazol],ED (-1.5 degC),[1],101 mg/kg
same,LD50 at 336 h,[2],3050 mg/kg
same,ED50,"[3]; 0.75 h, 45 min after application, read-out: Analgesie Ratte nach RANDALL-SELITTO 45 min nach Appl. [ED50]",79 mg/kg
same,ED50,"[3]; 1.5 h, 90 min after application, read-out: Analgesie Ratte nach RANDALL-SELITTO 90 min nach Appl. [ED50]",80 mg/kg
same,ED100,Wärmeschmerz der Maus,144 mg/kg
